Test results reported in patent US10071951B2, “Liquid cation exchanger” (Evonik Degussa GmbH, priority 2011, dated 2018).

Columns and labels:
E. coli W3110 [1] = conditions: culture covered with identical volume of solvent, oleic acid volume adapted with LSME
Procedure: Firstly, a preculture comprising 20 ml LB medium was inoculated in a 100 ml baffled flask with a cryoculture of the corresponding strain. The culture was cultured overnight at 37° C. and with shaking at 200 rpm used on the next day in order to inoculate an identical main culture to an OD of 0.2. The main cultures (each 30 mL of LB medium) were then further incubated under identical conditions. At an OD of 0.4 to 0.5, the main culture was covered with in each case identical volumes (30 ml) of solvent and then further incubated.
To determine the number of CFU (colony-forming units) 0.1 ml samples were taken in the following experiments and diluted in sterile 0.9% NaCl solution. Suitable dilution stages were plated out on LB agar plates. After incubation at 34° C. overnight, the colonies formed were counted and the CFUs determined.
For this, two different concentrations of oleic acid were used and the volume was adapted by adding the corresponding amount of LSME (methyl laurate).
On account of the lower solubility of the unsaturated fatty acid lauric acid, this was used in a smaller amount. The volumes of the different cation exchangers were made the same with the LSME. The number of CFUs was determined at the start, after 4.5 h and after 24 h.

E. coli BL21(DE3) = experiment: Toxicity of liquid cation exchangers, CFU determination (Example 2)
From the text: 50% DEHPA and lauric acid (15%), each dissolved in LSME and laden equimolar or 25 mol % with ALSME, were contacted as liquid cation exchanger with a E. coli BL21 (DE3) strain, and the influence of these two compounds on the ability of the strain to form colonies, expressed in CFUs, was investigated.

E. coli W3110 [2] = experiment: Reduction in the toxicity of ALSME by contacting with a liquid cation exchanger, CFU determination (Example 4); conditions: ALSME 0.2% (w/v) dissolved in aqueous systems, no organic phase
Procedure: Before the determination of the CFU was able to be carried out, a plate LB (10 g/L peptone from casein, 5 g/L yeast extract, 10 g/L NaCl) was streaked with E. coli BW3110 and incubated for 24 h. On the evening of the following day, a preculture was inoculated from this previously streaked plate. […] After the incubation of the main culture, the cells were harvested, centrifuged at 5258 g and 4° C. for 10 min and resuspended with an OD600 of 30 in 10 mL 50 mM Kp, buffer at pH 7.4 (or 25 mM HEPES buffer pH 7.4 if CFU determinations were carried out with ALSME). Both buffer solutions used contained 5% glucose (w/v). The bacteria suspension was then transferred to the shake flasks and treated with the respective substance solutions. After thorough mixing has taken place by swirling the flask, 100 μL of the suspension was pipetted out and placed into 900 μL, of previously charged sterile saline. This corresponded to sampling at time point t0. Then followed incubation of the preparations at 250 rpm and 30° C. The CFUs were determined over a period of 22 h. The samples were taken firstly at time points t0, t3, t6 and t22. For some preparations, a further sampling time point t15 was added and, in addition to this, a further additional dilution series was plated out in order to minimize deviations.
The bacteria were firstly resuspended in 5 mL (corresponds to half of the buffer volume). […]

[3] = Removal (reactive extraction) of DAI and DAS from an aqueous phase into a hydrophobic organic phase (Example 3); assay type: physicochemical
From the text: The organic solvents used here are kerosene (K), benzyl benzoate (B), methyl laurate (ML), cis-9-ocitadecen-1-ol (OD). As liquid cation exchangers, oleic acid and D2EHPA were compared in terms of their effect with the respective pure solvent.
The experimental procedure proceeded identically in all cases: the aqueous phase comprised 2% by weight of diamine and the organic phase consisted of the corresponding solvent and 20% by weight of the respective liquid cation exchanger. The volume ratio of the two phases was 1:1 (in each case 4.5 ml). At a constant temperature of T=30° C., the samples were shaken for 2 hours in a water bath. Then, after centrifugation and phase separation, the phases were analyzed. The pH was adjusted in all cases with aqueous ammonia or sulphuric acid.

[4] = test system: E. coli strain BL21 (DE3) Tlr pBT10 pACYC:Duet[TAcv]; experiment: Toxicity of liquid cation exchangers in fermentation, oxygen transfer rate (OTR) (Example 5); assay type: cell-based; conditions: ion exchanger 10% w/w in methyl laurate; for toxic effect on cells judged from the OTR curve: 150 mL added to fermentation broth, 22 h
Procedure: The biotransformation of methyl laurate to methyl aminolaurate was tested in an 8-fold parallel fermentation system from DasGip with different ion exchangers.
1 L reactors were used for the fermentation. The pH probes were calibrated using a two-point calibration with measurement solutions of pH 4.0 and pH 7.0. The reactors were filled with 300 mL of water and autoclaved for 20 min at 121° C. in order to ensure sterility. The pO2 probes were then polarized overnight (at least 6 h). On the next morning, the water was removed under the clean bench and replaced by high cell density medium with 50 mg/L kanamycin and 34 mg/L chloramphenicol. Subsequently, the pO2 probes were calibrated with a one-point calibration (stirrer: 600 rpm/gassing: 10 sL/h air) and the feed, correctant and induction means stretches were cleaned by means of clean-in-place. For this, the tubes were flushed with 70% ethanol, then with 1 M NaOH, then with sterile demineralised water, and finally filled with the respective media.
The ALS and ALSME producing E. coli strain BL21 (DE3) Tlr pBT10 pACYC:Duet[TAcv] was firstly grown from cryoculture in LB medium (25 mL in a 100 mL baffled flask) with 50 mg/L kanamycin and 34 mg/L chloramphenicol overnight at 37° C. and 200 rpm for ca. 18 h.
The 3 cultures were combined in a shake flask and the optical density was determined at 7.2. In order to inoculate the reactors with an optical density of 0.1, in each case 4.2 mL were drawn up in a 5 mL syringe and the reactors were inoculated by means of canulae via a septum.
The experiment carried out can be divided into two phases, the cultivation during which the cells should reach a certain optical density, and the subsequent biotransformation during which the expression of the genes required for the biotechnological process for producing ALSME was induced. The pH values were regulated to pH 6.8 on the one hand with ammonia (12.5%). During cultivation and biotransformation, the dissolved oxygen (DO) in the culture was regulated at 30% via stirrer speed and gassing rate. The fermentation was carried out as a feed batch, where the feed start, 5 g/Lh glucose feed (500 g/L glucose with 1% MgSO4*7H2O and 2.2% NH4Cl), was triggered via a DO peak. […] The expression of the transaminase was induced 2 h after feed start via the automatic addition of IPTG (1 mM). The induction of the alk-genes was carried out by the manual addition of DCPK (0.025% v/v) 10 h after feed start. Before the start of the biotransformation, the optical density of the culture broths was determined.
The start of the biotransformation phase was carried out 14 h after feed start. For this, 150 mL of a mixture of methyl laurate and the respective ion exchanger (10% w/w) were added as a batch to the fermentation broth. The ion exchangers used were di(2-ethylhexyl)phosphoric acid (DEHPA), lauric acid, oleic acid, palmitic acid, palmitoleic acid, stearic acid and a mixture of free fatty acids from the saponification of globe thistle oil. In order to provide an amino group donor for the transaminase, at the same time as the addition of the organic phase, 10.7 mL of an alanine solution (125 g/L) were added to the fermentation broth. For the sampling, 2 mL of fermentation broth were removed from the reactor and part of it was diluted 1/20 in an acetone/HCl mixture (c(HCl)=0.1 mol/L) and extracted. Samples were taken from all 8 reactors at 1.25 h, 3 h, 5 h, 20 h, 22 h […] after the start of the biotransformation. The transfer rates for oxygen (OTR=oxygen transfer rate) and carbon (CTR=carbon transfer rate) were determined during the fermentation via offgas analysis on the DasGip systems. The fermentation was ended 22 h after the start of the biotransformation.

E. coli BW3110 = experiment: Toxicity of the solvent LSME, CFU determination (Example 1); assay type: cell-based; conditions: cells OD600 60 in 10 mL Kp buffer mixed with 5 mL LSME 98% (w/w), 30° C.
Procedure: The OD600 was 60. […] One dilution stage per preparation was plated out.

[5] = E. coli BL21(DE3), culture covered with identical volume of solvent, oleic acid volume adapted with LSME
[6] = oleic acid 20% by weight, solvent methyl laurate, pH lowered with sulphuric acid

CCCCC(CC)C(=O)O (centres unmarked) [2-Ethylhexanoic acid]
Number of CFUs after 22 or 24 h relative to t = 0 h (E. coli W3110 [1]): 0%
Number of CFUs after 22 or 24 h relative to t = 0 h (E. coli BL21(DE3); [5]): 0%

COC(=O)CCCCCCCCCCCN [ALSME, methyl 12-aminolaurate]
effect on the bacteria (E. coli W3110 [2]): bactericidal effect

NC1COC2C(N)COC12 (centres unmarked) [DAI, diaminoisoiditol]
degree of extraction ([3]; D2EHPA 20% by weight as liquid cation exchanger, without addition of acid or alkali, pH range 5.4 to 6.2, 30° C., 2 h, phases 1:1): ca. 100%
maximum degree of extraction [3, 6]: 48%
maximum degree of extraction ([3]; oleic acid, solvent benzyl benzoate, pH 1.1): 15.3
maximum degree of extraction ([3]; oleic acid, solvent cis-9-octadecen-1-ol, pH 7.9, neither alkali nor acid added): 85%
maximum degree of extraction ([3]; oleic acid, solvent kerosene, pH 8.4): 77.5%

NC1COC2C(N)COC12 (centres unmarked) [DAS, diaminoisosorbitol]
maximum degree of extraction [3, 6]: 4%
maximum degree of extraction ([3]; oleic acid, solvent benzyl benzoate, pH 7.3): 61.5%
maximum degree of extraction ([3]; oleic acid, solvent cis-9-octadecen-1-ol, pH 6 (starting pH reduced with H2SO4)): 5.5%
maximum degree of extraction ([3]; oleic acid, solvent kerosene, pH 8.5): 85%

CCCCC(CC)COP(=O)(O)OCC(CC)CCCC (centres unmarked) [DEHPA, di(2-ethylhexyl)phosphoric acid, reference compound]
toxic effect on cells judged from the OTR curve [4]: high grade toxic effect
OTR after adding the compound to the culture ([4]; 150 mL, within a short time): 0
Number of CFUs after 22 or 24 h relative to t = 0 h (E. coli BL21(DE3); E. coli): 0%

CC(C)CCCCCC(=O)O [Isononanoic acid]
Number of CFUs after 22 or 24 h relative to t = 0 h (E. coli W3110 [1]): 0%
Number of CFUs after 22 or 24 h relative to t = 0 h (E. coli BL21(DE3); [5]): 0%

CCCCCCCCCCCC(=O)OC [LSME, methyl laurate]
percentage decrease in living cell count (E. coli BW3110; after 22 h): 30.3%
number of CFU/mL (E. coli BW3110; over a period of 6 h): remained constant
tolerance by the strains used (E. coli BL21(DE3); preliminary experiments): well tolerated

CCCCCCCCCCCC(=O)O [Lauric acid]
toxic effect on cells judged from the OTR curve [4]: notably less toxic than DEHPA
Number of CFUs after 22 or 24 h relative to t = 0 h (E. coli BL21(DE3); E. coli): 1.2%

CCCCCCCC/C=C\CCCCCCCC(=O)O [oleic acid]
toxic effect on cells judged from the OTR curve [4]: even lower toxicity than the saturated fatty acids

CCCCCCCCCCCCCCCC(=O)O [palmitic acid]
toxic effect on cells judged from the OTR curve [4]: considerably lower toxic effect

CCCCCC/C=C\CCCCCCCC(=O)O [palmitoleic acid]
toxic effect on cells judged from the OTR curve [4]: even lower toxicity than the saturated fatty acids

CCCCCCCCCCCCCCCCCC(=O)O [stearic acid]
toxic effect on cells judged from the OTR curve [4]: considerably lower toxic effect
